Laboratory results reported in US11834434B2, “Substituted 2-heteroaryloxypyridines and salts thereof and their use as herbicidal agents” (Bayer Aktiengesellschaft, priority 2018, dated 2023).

Legend:
Type in all cases: in vivo
Poa annua (POAAN) [1] = assay: Pre-emergence herbicidal action against Poa annua; details: 1280 g/ha; scored visually after about 3 weeks vs untreated controls; 100% = plants have died, 0% = like control plants
Description: (§1) Seeds of mono- and dicotyledonous weed plants were placed in plastic pots in sandy loam soil (doubly sown with in each case one species of mono- or dicotyledonous weed plants per pot) and covered with soil. The compounds of the invention, formulated in the form of wettable powders (WP) or as emulsion concentrates (EC), were then applied onto the surface of the covering soil as aqueous suspension or emulsion with addition of 0.5% additive at a water application rate of 600 liters per hectare (converted). After the treatment, the pots were placed in a greenhouse and kept under good growth conditions for the test plants. After about 3 weeks, the effect of the preparations was scored visually in comparison with untreated controls as percentages. For example, 100% activity=the plants have died, 0% activity=like control plants. Tables C1 to C8 below show the effects of selected compounds of the general formula (I) according to Table 1 on various harmful plants and an application rate corresponding to 1280 g/ha, which were obtained by the experimental procedure mentioned above.

Stellaria media (STEME) [2] = assay: Pre-emergence herbicidal action against Stellaria media; details: 1280 g/ha; scored visually after about 3 weeks vs untreated controls; 100% = plants have died, 0% = like control plants
Description: as §1

Stellaria media (STEME) [3] = assay: Post-emergence herbicidal action against Stellaria media; details: 1280 g/ha; rated visually after about 3 weeks vs untreated controls; 100% = plants have died, 0% = like control plants
Description: (§2) Seeds of mono- and dicotyledonous weed plants were placed in plastic pots in sandy loam soil (doubly sown with in each case one species of mono- or dicotyledonous weed plants per pot), covered with soil and cultivated in a greenhouse under controlled growth conditions. 2 to 3 weeks after sowing, the test plants were treated at the one-leaf stage. The compounds of the invention, formulated in the form of wettable powders (WP) or as emulsion concentrates (EC), were applied onto the green parts of the plants as aqueous suspension or emulsion with addition of 0.5% additive at a water application rate of 600 liters per hectare (converted). After the test plants had been kept in the greenhouse under optimum growth conditions for about 3 weeks, the activity of the preparations was rated visually in comparison to untreated controls. For example, 100% activity=the plants have died, 0% activity=like control plants. Tables B1 to B8 below show the effects of selected compounds of the general formula (I) according to Table 1 on various harmful plants and an application rate corresponding to 1280 g/ha, which were obtained by the experimental procedure mentioned above.

[4] = tested on: Abutilon theophrasti (ABUTH); assay: Pre-emergence herbicidal action against Abutilon theophrasti; details: 1280 g/ha; scored visually after about 3 weeks vs untreated controls; 100% = plants have died, 0% = like control plants
Description: as §1

[5] = tested on: Abutilon theophrasti (ABUTH); assay: Post-emergence herbicidal action against Abutilon theophrasti; details: 1280 g/ha; rated visually after about 3 weeks vs untreated controls; 100% = plants have died, 0% = like control plants
Description: as §2

[6] = tested on: Amaranthus retroflexus (AMARE); assay: Pre-emergence herbicidal action against Amaranthus retroflexus; details: 1280 g/ha; scored visually after about 3 weeks vs untreated controls; 100% = plants have died, 0% = like control plants
Description: as §1

Setaria viridis (SETVI) = assay: Pre-emergence herbicidal action against Setaria viridis; details: 1280 g/ha; scored visually after about 3 weeks vs untreated controls; 100% = plants have died, 0% = like control plants
Description: as §1

[7] = tested on: Echinochloa crus-galli (ECHCG); assay: Pre-emergence herbicidal action against Echinochloa crus-galli; details: 1280 g/ha; scored visually after about 3 weeks vs untreated controls; 100% = plants have died, 0% = like control plants
Description: as §1

[8] = tested on: Matricaria inodora (MATIN); assay: Pre-emergence herbicidal action against Matricaria inodora; details: 1280 g/ha; scored visually after about 3 weeks vs untreated controls; 100% = plants have died, 0% = like control plants
Description: as §1

Lolium rigidum (LOLRI) = assay: Pre-emergence herbicidal action against Lolium rigidum; details: 1280 g/ha; scored visually after about 3 weeks vs untreated controls; 100% = plants have died, 0% = like control plants
Description: as §1

Poa annua (POAAN) [9] = assay: Post-emergence herbicidal action against Poa annua; details: 1280 g/ha; rated visually after about 3 weeks vs untreated controls; 100% = plants have died, 0% = like control plants
Description: as §2

[10] = tested on: Amaranthus retroflexus (AMARE); assay: Post-emergence herbicidal action against Amaranthus retroflexus; details: 1280 g/ha; rated visually after about 3 weeks vs untreated controls; 100% = plants have died, 0% = like control plants
Description: as §2

| SMILES | Pre-emergence action against Poa annua (POAAN) (Poa annua (POAAN) [1]) | Pre-emergence action against Stellaria media (STEME) (Stellaria media (STEME) [2]) | Post-emergence action against Stellaria media (STEME) (Stellaria media (STEME) [3]) | Pre-emergence action against Abutilon theophrasti (ABUTH) [4] | Post-emergence action against Abutilon theophrasti (ABUTH) [5] | Pre-emergence action against Amaranthus retroflexus (AMARE) [6] | Pre-emergence action against Setaria viridis (SETVI) (Setaria viridis (SETVI)) | Pre-emergence action against Echinochloa crus-galli (ECHCG) [7] | Pre-emergence action against Matricaria inodora (MATIN) [8] | Pre-emergence action against Lolium rigidum (LOLRI) (Lolium rigidum (LOLRI)) | Post-emergence action against Poa annua (POAAN) (Poa annua (POAAN) [9]) | Post-emergence action against Amaranthus retroflexus (AMARE) [10] |
| --- | --- | --- | --- | --- | --- | --- | --- | --- | --- | --- | --- | --- |
| Cc1cc(C)c(Cc2ccc(Cl)c(F)c2)c(Oc2ncc(F)cn2)n1 [Example I-485] | 100% | 100% | 100% | 100% | 90% | 100% | 100% | 90% | 100% | 90% | 90% | 100% |
| Fc1cnc(Oc2ncccc2Sc2ccc(F)cc2F)nc1 [Example I-156] | 100% | 100% | 100% |  | 100% | 100% | 90% |  | 90% |  |  | 100% |
| Cc1ccc(Cc2ccccc2)c(Oc2ncc(Cl)cn2)n1 [Example I-397] | 100% | 100% | 100% | 100% | 90% | 90% | 100% | 100% | 100% | 100% | 100% |  |
| COc1c(F)ccc(Cc2c(C)cc(C)nc2Oc2ncc(F)cn2)c1F [Example I-488] | 100% | 100% | 100% | 100% | 100% | 100% | 100% | 100% | 100% | 100% | 90% | 100% |
| Cc1ccc(Oc2ccccc2)c(Oc2ncc(F)cn2)n1 [Example I-511] | 100% | 100% | 100% | 100% | 90% | 100% | 100% | 100% | 100% | 90% | 100% | 100% |
| Cc1cc(C)c(Cc2ccc(C)c(F)c2)c(Oc2ncc(F)cn2)n1 [Example I-483] | 100% | 100% | 100% | 100% | 90% | 100% | 100% | 90% | 100% | 90% | 90% | 90% |
| Cc1ccc(Cc2ccccc2)c(Oc2ncc(F)cn2)n1 [Example I-430] | 100% | 100% | 100% | 100% |  | 100% | 100% | 100% | 100% | 90% | 90% | 90% |
| Cc1ccc(Cc2c(C)cc(C)nc2Oc2ncc(F)cn2)cc1 [Example I-486] | 100% | 100% | 100% | 100% | 90% | 100% | 100% | 100% |  | 90% | 100% | 90% |
| Cc1ccc(Cc2ccc(F)cc2F)c(Oc2ncc(F)cn2)n1 [Example I-433] | 100% | 100% | 100% | 100% | 90% | 100% | 100% | 100% | 100% | 90% | 100% | 90% |
| COc1cc(Oc2ccc(C)nc2Oc2ncc(F)cn2)ccc1F [Example I-520] | 100% | 100% |  | 90% | 90% | 100% | 90% |  | 100% | 100% |  | 100% |
